Results from publication PMC6647401, “Phase I dose-escalation study of F14512, a polyamine-vectorized topoisomerase II inhibitor, in patients with platinum-refractory or resistant ovarian cancer” (Investigational New Drugs, 2018).
Values joined by “and” are separate entries in the source; they are usually repeats but may differ in a detail not shown here. Equal entries are not always repeated. Where two headings read alike, the source gives them in different places.

Columns and labels:
[1] = system: PTS(+) A2780R cisplatin-resistant cell line; design: method as in PMID 26404751; conditions: preliminary studies; cited from earlier work
SK-OV3 cancer cells = system: SK-OV3 cancer cells; design: method as in PMID 26404751; conditions: cited from earlier work
[2] = Plasma pharmacokinetics (LC/MS/MS); type: in vivo, human; conditions: for AUCinf/dose level of F14512: n = 11, mean [range], three-hour infusion
Method: Plasma PK was studied after the administrations on days 1 and 3 of cycle 1 (pre-dose, T0+1.5 h, T0+3 h, T0+3.5 h, T0+4 h, T0+6 h T0+12 h, T0+24 h) and day 1 of cycle 2 (pre-dose, T0+3.5 h, T0+8 h, T0+24 h). F14512, its metabolite F16490 and the metabolite BG (an additional metabolite peak found in human during exploratory metabolite identification analysis and not retrieved in animal species) were assayed in plasma using liquid chromatography coupled with tandem mass spectrometry (LC/MS/MS).
Continuous data were summarized with frequency, median, range, mean, standard deviation and standard error if relevant. Categorical data were presented as frequencies and percentages. 95% confidence intervals (CI) were calculated following the exact method. PK parameters were compared for reproducibility between day 1 and day 3 of cycle 1 for F14512 and its metabolite F16490 using a pairwise t-test or a Wilcoxon test according to the normality of their distribution. Dose-proportionality of PK parameters for F14512 and its metabolite F16490 was investigated by graphical display only. A p value <0.05 was considered statistically significant. Data were analyzed using the SAS® system software version 9.3 for Windows® (Statistical Analysis System, Cary, NC, USA).

human cancer cell lines = system: human cancer cell lines; design: method as in PMID 19047165; conditions: in vitro; cited from earlier work
[3] = system: platinum-refractory or resistant ovarian cancer; assay: Efficacy by GCIG response criteria (RECIST 1.1 and CA-125); type: in vivo, human
Method: (§1) Toxicities were graded according to National Cancer Institute - Common Toxicity Criteria (NCI - CTC) for adverse events (AEs) (version 4.0). DLT determination criteria and safety assessments are described in the Online Resource. Response was assessed by using GCIG response criteria incorporating RECIST version 1.1 and CA-125. Plasma PK assessments and statistical methods are described in the Online Resource.

[4] = system: patients with platinum-refractory or resistant ovarian cancer; assay: Safety: study drug-related adverse events (NCI-CTC v4.0); type: in vivo, human
Method: as §1
Safety was assessed by physical examination on days 1, 2 and 3 during each cycle. Complete blood cell counts were performed on days 4, 6, 8, 10, 12 and 15 of the first cycle, on day 1 of each subsequent cycle and then on a weekly basis thereafter. Serum chemistry was performed weekly during the first cycle and at the end of each cycle thereafter except serum magnesium and potassium which were measured twice weekly during the first week of each cycle and then, weekly for the following weeks. ECGs were performed at baseline and on day 1 of each cycle.

experimental models = system: experimental models; design: method as in PMID 19777159; conditions: cited from earlier work
[5] = system: relapsed or refractory acute myeloid leukemia (AML); design: method as in earlier work; conditions: single agent, AML patients at first relapse; cited from earlier work
[6] = system: patients with platinum-refractory or resistant ovarian cancer; type: in vivo
Method: This was an open-label, dose-escalation, multicenter, phase I study (EudraCT Number: 2012–005798-29) conducted in 3 investigational sites in France. The 10 mg/m^2/day dose of F14512 was planned as a starting dose (DL1) for escalation in cohorts of 3 to 6 patients until the MTD was reached. Dose escalation was based on a standard titration design by using increments of 33% except from the first dose escalation, which could proceed with a dose increment of 50% in the absence of grade 3 neutropenia and dose limiting toxicity (DLT) observed at DL1. Dose escalation then proceeded except if criteria of MTD were met at DL1. In that instance, the 5 mg/m^2/day dose was tested. All patients in a DL had to be followed for at least 3 weeks (cycle 1) for DLT evaluation before the first patient of the next dose level started treatment. The final decision to proceed to the next DL was made by the safety committee at the dose-escalation meeting. The MTD was defined as the DL at which 2/3 or 2/6 patients experienced a DLT during the first cycle. The Recommended Dose (RD) was the DL immediately below the MTD. A total of 10 evaluable patients had to be treated at the RD.
F14512 was administered as three-hour daily infusion through a central venous catheter for 3 consecutive days every 3 weeks depending on recovery to normal hematopoiesis or recovery of non-hematological toxicities to grade 1. During the first cycle, G- and GM-CSF use was prohibited, however, there were no such constraints in subsequent cycles.
DLTs were defined as one of the following drug-related AEs occurring during the first cycle: grade 4 neutropenia ≥ 7 days, grade 4 thrombocytopenia, or grade 3 thrombocytopenia requiring transfusion and/or associated with bleeding, grade 3 or 4 neutropenia concomitant with grade ≥ 3 infection or febrile neutropenia, any grade ≥ 3 gastrointestinal toxicity including grade ≥ 3 nausea, vomiting or diarrhea if persistent despite optimal antiemetic or anti-diarrheal treatment, any other drug-related grade ≥ 3 toxicity, any drug-related AE that required a delay of ≥ 2 weeks of the administration of cycle 2.

[7] = system: platinum-resistant ovarian cancer (PROC); conditions: cited from earlier work
[8] = Overall n = 11 (both dose levels), worse grade by patient

For `COc1cc([C@@H]2c3cc4c(cc3[C@@H](NC(=O)CNCCCNCCCCNCCCN)[C@H]3COC(=O)[C@H]23)OCO4)cc(OC)c1O` [F14512], the “Antitumor activity in ovarian tumor models” value [1] is listed as “confirmed the antitumor activity”, the “Increased sensitivity to cytotoxicity compared to etoposide” value (SK-OV3 cancer cells) is listed as “ten-fold” and the “Dose dependent PK parameters versus dose level” value ([2]; 5 versus 10 mg/m^2/day, no statistical analysis) is listed as “increased with DL”. For the same compound, the Cltot ([2]; D1 of cycle 1, n = 11, mean [range]) was 13.2 [6.17–22.4] L/h, the “AUCinf/dose level of F14512” value ([2]; D1 of cycle 1, plasma) was 152 [67.7–308] and the Cltot ([2]; D3 of cycle 1, n = 11, mean [range]) was 12.9 [5.92–23.1] L/h. For the same compound, the “AUCinf/dose level of F14512” value ([2]; D3 of cycle 1, plasma) was 156 [65.9–270], the “Difference of PK parameters between Day 1 and Day 3” value ([2]; cycle 1, pairwise t-test or Wilcoxon test) was “not statistically significant” and the “Cell lines with superior anti-proliferative activity” value (human cancer cell lines) was 21/29. The Objective response ([3]; 5 patients evaluable for efficacy, GCIG criteria) was “no objective response”, the “Stable disease (SD) as best overall response” value ([3]; of 5 evaluable patients (40%), both received 9 cycles, 1 at each DL) was 2 patients and the “Study drug-related AE: Confusional state, Overall grades” value ([4]; 5 mg/m^2/day, n = 6, worse grade by patient) was 1 (16.7) N (%). The “Grade 4 neutropenia, cycles affected / cycles administered” value ([4]; DL 5 mg/m^2/day) was 14/16, the Neutropenic infection ([4]; DL 5 mg/m^2/day) was 1 patient and the “Grade 4 neutropenia, cycles affected / cycles administered” value ([4]; DL 10 mg/m^2/day) was 12/13. For the same compound, the “Study drug-related AE: Alopecia, Overall grades” value [4, 8] was 2 (18.2) N (%), the “Study drug-related AE: Any related TESS, Grade 3” value [4, 8] was 6 (54.5) N (%) and the “Study drug-related AE: Any related TESS, Grade 4” value [4, 8] was 1 (9.1) N (%). The “Study drug-related AE: Any related TESS, Overall grades” value [4, 8] was 11 (100.0) N (%), the “Study drug-related AE: Asthenia, Grade 3” value [4, 8] was 2 (18.2) N (%) and the “Study drug-related AE: Asthenia, Overall grades” value [4, 8] was 9 (81.8) N (%). For the same compound, the “Study drug-related AE: Blood and lymphatic system disorders, Grade 3” value [4, 8] was 4 (36.4) N (%), the “Study drug-related AE: Blood and lymphatic system disorders, Grade 4” value [4, 8] was 1 (9.1) N (%) and the “Study drug-related AE: Blood and lymphatic system disorders, Overall grades” value [4, 8] was 5 (45.5) N (%). For the same compound, the “Study drug-related AE: Confusional state, Overall grades” value [4, 8] was 1 (9.1) N (%), the “Study drug-related AE: Constipation, Overall grades” value [4, 8] was 2 (18.2) N (%) and the “Study drug-related AE: Diarrhea, Overall grades” value [4, 8] was 2 (18.2) N (%). The “Study drug-related AE: Dysgeusia, Overall grades” value [4, 8] was 1 (9.1) N (%), the “Study drug-related AE: Dyspepsia, Overall grades” value [4, 8] was 1 (9.1) N (%) and the “Study drug-related AE: Febrile neutropenia, Grade 3” value [4, 8] was 4 (36.4) N (%). The “Study drug-related AE: Febrile neutropenia, Overall grades” value [4, 8] was 4 (36.4) N (%), the “Study drug-related AE: Gastrointestinal disorders, Grade 3” value [4, 8] was 2 (18.2) N (%) and the “Study drug-related AE: Gastrointestinal disorders, Overall grades” value [4, 8] was 6 (54.5) N (%). The “Study drug-related AE: General disorders and administration site conditions, Grade 3” value [4, 8] was 2 (18.2) N (%), the “Study drug-related AE: General disorders and administration site conditions, Overall grades” value [4, 8] was 9 (81.8) N (%) and the “Study drug-related AE: Gingivitis, Overall grades” value [4, 8] was 1 (9.1) N (%). For the same compound, the “Study drug-related AE: Infections and infestations, Overall grades” value [4, 8] was 1 (9.1) N (%), the “Study drug-related AE: Muscle spasms, Overall grades” value [4, 8] was 2 (18.2) N (%) and the “Study drug-related AE: Musculoskeletal and connective tissue disorders, Overall grades” value [4, 8] was 2 (18.2) N (%). For the same compound, the “Study drug-related AE: Myalgia, Overall grades” value [4, 8] was 1 (9.1) N (%), the “Study drug-related AE: Nausea, Grade 3” value [4, 8] was 2 (18.2) N (%) and the “Study drug-related AE: Nausea, Overall grades” value [4, 8] was 6 (54.5) N (%). The “Study drug-related AE: Nervous system disorders, Overall grades” value [4, 8] was 1 (9.1) N (%), the “Study drug-related AE: Neutropenia, Overall grades” value [4, 8] was 1 (9.1) N (%) and the “Study drug-related AE: Neutropenic infection, Overall grades” value [4, 8] was 1 (9.1) N (%). For the same compound, the “Study drug-related AE: Night sweats, Overall grades” value [4, 8] was 1 (9.1) N (%), the “Study drug-related AE: Onycholysis, Overall grades” value [4, 8] was 1 (9.1) N (%) and the “Study drug-related AE: Psychiatric disorders, Overall grades” value [4, 8] was 1 (9.1) N (%). For the same compound, the “Study drug-related AE: Pyrexia, Overall grades” value [4, 8] was 1 (9.1) N (%), the Study drug-related deaths ([4]; all 11 patients) was “no study drug-related deaths” and the Vomiting ([4]; all 11 patients (36%)) was 4 patients. The “Metabolism and nutrition disorder with decreased appetite” value ([4]; all 11 patients (46%)) was 5 patients, the Nausea ([4]; all 11 patients (55%)) was 6 patients and the “Grade 4 neutropenia, share of treated patients” value ([4]; all 11 patients, both dose levels) was 90.9%. For the same compound, the “Study drug-related SAEs per dose level” value ([4]; at each DL (10 and 5 mg/m^2/day)) was 3 patients, the “Grade 4 neutropenia, cycles affected / cycles administered” value ([4]; both dose levels) was 26/29 and the Gastrointestinal disorders ([4]; in vivo) was 6 patients. The “General disorders (mainly asthenia)” value ([4]; in vivo) was 9 patients, the “Grade 3 febrile neutropenia” value ([4]; in vivo) was 4 patients and the “Grade 4 neutropenia reported as serious drug-related AE” value ([4]; in vivo) was 1 patient. For the same compound, the “Grade 4 neutropenia, share of cycles administered” value ([4]; in vivo) was 89.7%, the “Study drug-related AE: Skin and subcutaneous tissue disorders, Overall grades” value ([4]; in vivo) was 4 (36.4) N (%) and the “Study drug-related AE: Stomatitis, Overall grades” value ([4]; in vivo) was 1 (9.1) N (%). The “Study drug-related AE: Vomiting, Overall grades” value ([4]; in vivo) was 4 (36.4) N (%), the “Study drug-related serious AEs (SAEs)” value ([4]; in vivo) was 6 patients and the “Tumor response in experimental models” value (experimental models; after intravenous or oral administration) was “complete tumor regression”. For the same compound, the “Experimental models with antitumor efficacy” value (experimental models; in vivo) was 13/19, the “Response rate in experimental models” value (experimental models; in vivo) was 68% and the Complete remissions [5] was 36%. The “Number of DLTs reported” value ([6]; 5 mg/m^2/day, in 2/6 treated patients) was 2 DLTs, the “Number of DLTs reported” value ([6]; 10 mg/m^2/day, in 3/4 evaluable patients) was 6 DLTs and the “Permanent treatment discontinuation because of study drug-related toxicity” value ([6]; in vivo) was 5 patients. For the same compound, the “Maximum tolerated dose (MTD)” value ([6]; three-hour daily infusion, 3 consecutive days every 3 weeks, both dose levels defined as MTD) was 5 mg/m^2/day and 10 mg/m^2/day.

In the case of `CC(=O)O[C@H]1C(=O)[C@@]2(C)[C@H]([C@H](OC(=O)c3ccccc3)[C@]3(O)C[C@H](OC(=O)[C@H](O)[C@@H](NC(=O)c4ccccc4)c4ccccc4)C(C)=C1C3(C)C)[C@]1(OC(C)=O)CO[C@@H]1C[C@@H]2O` [paclitaxel], the Progression free survival [7] is given as 2–6 months and the Response rates [7] is given as 0%–30%.
